In publication PMC6158191, “Crystal structure of the red light-activated channelrhodopsin Chrimson” (Nature Communications, 2018):

Key:
[1] = biological target: C1Chrimson (Chrimson variant with the extracellular N-terminal sequence replaced by that of CrChR1) (Chlamydomonas reinhardtii | Chlamydomonas noctigama); assay: crystal structure; lipidic cubic phase (monoolein) crystals, 28-33% PEG500DME, 100 mM Na citrate pH 5.0, 100 mM Na malonate pH 7.0, 10-40 mM sarcosine; two protomers in the asymmetric unit; 2.6 Å
[2] = biological target: T1, C1Chrimson (called Chrimson in the structure and spectroscopy sections) (Chlamydomonas noctigama, UniProt Z9S8G4QJ52); assay: X-ray crystallography, […] Å; assay type: binding; conditions: covalent; Schiff base to conserved lysine; crystals at low pH, dark
T1 construct: residues 1-79 of CsChrimson replaced by CrChR1 1-76; Sf9; C-terminal TEV-EGFP-FLAG cleaved for crystals; C-terminal FLAG for spectroscopy; dimer
T1 sequence (Z9S8G4QJ52 1-347): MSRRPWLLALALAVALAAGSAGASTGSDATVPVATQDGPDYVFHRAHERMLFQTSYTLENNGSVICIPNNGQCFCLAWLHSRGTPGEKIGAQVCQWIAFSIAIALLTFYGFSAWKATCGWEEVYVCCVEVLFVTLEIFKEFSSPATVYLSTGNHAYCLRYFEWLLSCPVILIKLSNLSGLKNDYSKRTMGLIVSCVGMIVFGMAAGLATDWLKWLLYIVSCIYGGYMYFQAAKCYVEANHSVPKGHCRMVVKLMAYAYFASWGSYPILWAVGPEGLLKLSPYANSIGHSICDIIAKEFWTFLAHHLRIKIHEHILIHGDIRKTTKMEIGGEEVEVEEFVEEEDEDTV

CsChrimson = biological target: T2, CsChrimson (Chlamydomonas noctigama, UniProt Z9S8G4QJ52, , form not given); assay: whole-cell patch clamp, HEK293, photocurrent on cation exchange; assay type: cell-based; conditions: permeant ion; 110 mM guanidinium chloride outside replacing NaCl; 110 mM NaCl inside, pHi 7.2
T2 construct: extracellular N-terminus of Chrimson replaced by that of C. subdivisa channelrhodopsin; in pmCerulean-C1 vector; HEK293 cells; with Channelrhodopsin (Chloromonas subdivisa; N-terminal extracellular part of the same polypeptide)
T2 sequence (Z9S8G4QJ52 77-347 R159H): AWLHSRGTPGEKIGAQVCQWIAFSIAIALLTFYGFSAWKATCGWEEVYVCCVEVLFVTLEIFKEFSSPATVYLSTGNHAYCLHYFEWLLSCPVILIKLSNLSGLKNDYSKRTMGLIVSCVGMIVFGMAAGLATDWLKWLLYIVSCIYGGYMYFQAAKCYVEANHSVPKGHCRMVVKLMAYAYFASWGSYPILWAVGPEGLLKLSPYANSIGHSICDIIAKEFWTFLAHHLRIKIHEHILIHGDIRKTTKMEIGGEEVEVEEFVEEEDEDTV

Compound: C1Chrimson (Chrimson variant with the extracellular N-terminal sequence replaced by that of CrChR1)
- stoichiometry N [1]: 2

Compound: CC1=C(/C=C/C(C)=C/C=C/C(C)=C/C=O)C(C)(C)CCC1 [all-trans retinal]
- X-ray crystallography, 2.6 Å [2]: including the covalently attached all-trans retinal

Compound: N=C(N)N [guanidinium]
- whole-cell patch clamp, HEK293, photocurrent on cation exchange (CsChrimson): ion-conducting pore of the R162H mutant is permeable to the large cation guanidinium
